Laboratory results as given in patent publication US11382880B2, “Method for improving digestive health” (Brightseed, Inc., priority 2019, dated 2022).
Values belong to the compound of their own block, whether it stands above or below them.

Key:
HNF4α [1] = target: T1, HNF4α (Homo sapiens, UniProt P41235); parameters: endogenous in cells; host or cells: T6PNE engineered pancreatic cells; conditions: Lee, et al. (2013); cited from earlier work
T1 sequence (P41235 1-474): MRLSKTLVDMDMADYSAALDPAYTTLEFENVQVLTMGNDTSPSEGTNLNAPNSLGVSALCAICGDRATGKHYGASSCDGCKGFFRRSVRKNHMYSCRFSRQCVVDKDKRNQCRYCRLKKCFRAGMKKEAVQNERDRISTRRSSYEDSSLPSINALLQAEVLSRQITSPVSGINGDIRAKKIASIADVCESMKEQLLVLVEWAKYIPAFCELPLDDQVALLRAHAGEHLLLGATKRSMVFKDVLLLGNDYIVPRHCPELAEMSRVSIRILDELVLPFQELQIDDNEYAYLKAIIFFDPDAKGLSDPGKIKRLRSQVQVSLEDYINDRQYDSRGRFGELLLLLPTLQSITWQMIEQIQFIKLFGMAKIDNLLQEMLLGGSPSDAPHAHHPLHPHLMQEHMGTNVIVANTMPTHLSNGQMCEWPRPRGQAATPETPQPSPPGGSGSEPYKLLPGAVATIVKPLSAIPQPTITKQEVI

HNF4α [2] = target: T1, HNF4α; assay: Insulin promoter-reporter assay measuring HNF4α activity (T6PNE engineered pancreatic cell); type: cell-based; parameters: endogenous in cells; host or cells: T6PNE engineered pancreatic cells; conditions: for HNF4α modulator activity in screening: screening of predicted plant compounds in the HNF4α assay
Description: FIG. 1 illustrates a dose-response analysis of N-trans-caffeoyltyramine, N-trans-feruloyltyramine and p-coumaroyltyramine in an assay measuring insulin promoter activity. Dimethylsulfoxide (DMSO) and alverine (20 μM) were used as negative and positive controls, respectively.
The tyramine containing hydroxycinnamic acid amide of this disclosure are analogs of lead compounds identified in traditional screening assays for agents that modulate known signaling pathways. […] While not wishing to be bound by theory, it is believed that the tyramine containing hydroxycinnamic acid amides of this disclosure increase HNF4α activity as a result of higher affinity for the HNF4α binding site than the natural ligand, palmitic acid, which down regulates HNF4α activity. Accordingly, by increasing HNF4α activity, the compounds of this disclosure are of use in improving heal thy digestive function, thereby addressing the underlying pathogenesis of gastrointestinal disorders such as IBD, UC, and CD. Using the composition of this disclosure, health and well-being are improved and promoted.
Given the role of HNF4α in maintaining a healthy metabolism in humans, test compounds were screened for activity as HNF4α agonists (either direct or indirect effects). Using a known insulin promoter-reporter assay, Kiselyuk and colleagues (2010. J. Biomol. Screen 15(6): 663-70), screened a library of compounds for activity to promote insulin activation. […] The OTC promoter is known to be responsive to HNF4α in transient transfection assays (Inoue, et al. (2002) J. Biol. Chem. 277:25257-65).
Plant compounds in the top 10th percentile of similarity to the 18 target structures were selected and compounds predicted to be potential agonists of HNF4α activity given their chemical structural features were screened in the HNF4α assay. […] Due to hydroxyl derivatization of both phenyl rings, N-transcaffeoyltyramine is less lipophilic and therefore expected to be more bioavailable.

HNF4α mRNA = HNF4α mRNA levels by quantitative PCR; type: cell-based; conditions: FIG. 2
Description: FIG. 2 illustrates the effect of N-trans-caffeoyltyramine, N-trans-feruloyltyramine and p-coumaroyltyramine on HNF4α mRNA levels as determined by quantitative PCR. DMSO and alverine (20 μM) were used as negative and positive controls, respectively.
Expression of Insulin and HNF4α. RNA was purified using a RNEASY® chromatographic separation and isolation kits (Qiagen), and converted to cDNA using the gScript™ cDNA SuperMix (Quanta Biosciences). Q-PCR was conducted with cDNA corresponding to 2 μg of RNA using an Optic on Real-Time System (MJ Research) and QPCR SuperMix (BioPioneer). See All mRNA values were normalized to 18S rRNA values and are expressed as fold changes over vehicle-treated control.

[3] = Bioavailability determination in male C57BL/6 mice; type: in vivo; conditions: mouse, whole blood, IV 2.0 mg/kg, oral 30.0 mg/kg, IP 30 mg/kg, route of the printed value not stated
Description: Bioavailability Determinations. Male C57BL/6 mice were administered N-trans-caffeoyl tyramine or N-transferuloyl tyramine via IV, intraperitoneal or oral route (three mice for each route) (Table 2).
A blood sample from each mouse was drawn at 0.25, 0.5, 1, 2, 4, 6 and 24 hours after administration. An 8 μL aliquot of blood was used for analysis. After adding 200 μL of an internal standard comprising 100 ng/mL Labetalol, 100 ng/mL dexamethasone, 100 ng/mL tolbutamide, 100 ng/mL Verapamil, 100 ng/mL Glyburide, and 100 ng/mL Celecoxib in ACN, the mixture was vortex-mixed and centrifuged at 12000 rpm for 15 minutes at 4° C. to pellet precipitated protein. Four μL of the supernatant was injected for LC-MS/MS analysis. Bioavailability (%) was calculated using AUC0-inf (% AUCExtra<20%) or AUC0-last(% AUCExtra>20%) with nominal dose.

HNF4α [4] = assay: HNF4α expression in the intestine of DIO mice; type: in vivo; conditions: villi and crypt
From the text: FIG. 4 illustrates HNF4α is increased in the intestine of DIO mice treated with NCT.
(§1) Intestine from mice treated with DMSO or N-trans-caffeoyltyramine were examined histologically. Gross morphological appearance was unchanged. […] In both, HNF4α was highly expressed in the crypt, with much less being detectable in the villi (see FIG. 4). […] Paneth cells are specialized secretory cells that play a critical role in defenses against intestinal microbes. To that end, they secrete a variety of antimicrobial peptides. Of note, Paneth cells play an important role in IBD pathogenesis. High fat diet has been reported to reduce the number of Paneth cells, and our studies reproduced that finding (see FIG. 4), but the mechanism by which that occurs has not been understood.

pH Stability Assessment = type: physicochemical; conditions: pH 2, 7.4, 8.5 and 10; 37° C.; 0.5 and 72 hours; HPLC peak area at 280 nm
Description: pH Stability Assessment. Individual stock solutions were prepared in DMSO at concentrations of 10 mg/mL. Four different buffer solutions were prepared to achieve solutions with a pH of 2, 7.4, 8.5 and 10. For each pH assay, 5 μL of stock solution was added to 245 μL of buffered solution to a 2 mL tube, vortexed and incubated in a 37° C. water bath. At each timepoint, 50 μL aliquots were taken, neutralized and analyzed via HPLC analysis using a DAD detector at 280 nm. The fold change of the peak area at 280 nm was analyzed for the initial and final timepoint, 0.5 and 72 hours, respectively.

Paneth cells = assay: Number of Paneth cells in the intestine of DIO mice; type: in vivo; conditions: DIO mice (high fat diet)
From the text: FIG. 5 illustrates paneth cells are increased in the intestine of DIO mice treated with NCT.
as §1

HNF4α [5] = assay: Intestinal HNF4α expression in C57BL/6 mice after IP dosing; type: in vivo; conditions: IP twice a day for 14 days
Description: Primary Antibodies. HNF4α antibodies were used (#sc-6556, Santa Cruz Biotechnology; Santa Cruz, Calif. and #3113, Cell Signaling Technology; Danvers, Mass.). For fluorescent imaging, samples were incubated with ALEXA FLUOR® 488 green-fluorescent dye or Rhodamine labeled anti-mouse, rabbit or goat and nuclei were counterstained with DAPI (4′,6-diamidino-2-phenylindole). […] were analyzed with a conventional inverted microscope (Olympus, PlanFl 40×/0.60) or with a confocal microscope equipped with a krypton/argon laser.
To confirm the in vivo […] samples were harvested and stained to visualize HNFα expression, ZO-1 and DAPI staining.

Intestine = assay: Histological examination of intestine, gross morphology; type: in vivo; conditions: mice treated with DMSO or N-trans-caffeoyltyramine
From the text: as §1

CaCo-2 cells = assay: TNF-α induced tight junction damage in CaCo-2 monolayer, ZO-1 staining; type: cell-based; conditions: 200 ng or 300 ng TNF-α
Description: TNF-α is an inflammatory cytokine that increases intestinal tight junction permeability. To analyze the effect of N-trans-caffeoyltyramine on tight junctions, 200 ng or 300 ng TNF-α was added to a monolayer of epithelial CaCo-2 cells to induced tight junction damage. After TNF-α exposure, N-trans-caffeoyltyramine was added and tight junction formation was determined by antibody staining for zonula occludens (ZO) −1. […] The CaCo-2 cells was sorted for high TNF-α expression with compromised integrity of tight junctions. Increasing concentration of exogenous TNF-α from 200 ng to 300 ng reduced ZO-1 staining.

HNF4α [6] = target: T1, HNF4α; parameters: endogenous in cells; host or cells: T6PNE engineered pancreatic cells; conditions: Kiselyuk, et al. (2012); cited from earlier work
HNF4α [7] = target: T1, HNF4α; conditions: cited from earlier work

Compound: CCN(CCCc1ccccc1)CCCc1ccccc1 [Alverine]
- Activity as HNF4α activators (HNF4α [1]): activity as HNF4α activators

Compound: CC(Cc1cccc(C(F)(F)F)c1)NCCOC(=O)c1ccccc1 (stereo not shown) [Benfluorex]
- Activity as HNF4α activators (HNF4α [1]): activity as HNF4α activators

- HNF4α modulator activity in screening (HNF4α [2]): able to act as HNF4α modulators
Compound: O=C(/C=C\c1ccc(O)c(O)c1)NCCc1ccc(O)cc1 [N-cis-caffeoyltyramine]

Compound: O=C(/C=C/c1ccc(O)cc1)NCCc1ccc(O)c(O)c1 [N-coumaroyldopamine]
- HNF4α gene expression (quantitative PCR) (HNF4α mRNA): inactive

- bioavailability [3]: ~11%
- HNF4α modulator activity in screening (HNF4α [2]): able to act as HNF4α modulators
- pH Stability (pH Stability Assessment): Acid Stable
- Gross morphological appearance of intestine (Intestine): unchanged
Compound: O=C(/C=C/c1ccc(O)c(O)c1)NCCc1ccc(O)cc1 [N-trans-caffeoyltyramine]
- Potency in activating HNF4α compared with Alverine (HNF4α [2]; FIG. 1, alverine 20 μM positive control): roughly an order-of-magnitude more potent than Alverine
- HNF4α expression in intestine (HNF4α [4]): large increase in HNF4α expression throughout
- HNF4α expression in intestine (HNF4α [4]; listed as NCT): increased
- Number of Paneth cells (Paneth cells): complete recovery in the number of Paneth cells
- Number of Paneth cells (Paneth cells; listed as NCT): increased
- HNF4α expression in intestinal lining (HNF4α [5]): induced HNF4α expression in the intestinal lining
- HNF4α gene expression (quantitative PCR) (HNF4α mRNA): upregulated
- Effect on TNF-α reduced ZO-1 staining (tight junctions) (CaCo-2 cells): reversed the effects of TNF-α on ZO-1

Compound: COc1cc(/C=C/C(=O)NCC(O)c2ccc(O)cc2)ccc1O (stereo not drawn) [N-trans-feruloyloctopamine]
- HNF4α gene expression (quantitative PCR) (HNF4α mRNA): inactive

- bioavailability [3]: ~7%
- HNF4α modulator activity in screening (HNF4α [2]): able to act as HNF4α modulators
- pH Stability (pH Stability Assessment): Stable
Compound: COc1cc(/C=C/C(=O)NCCc2ccc(O)cc2)ccc1O [N-trans-feruloyltyramine]
- HNF4α gene expression (quantitative PCR) (HNF4α mRNA): upregulated

Compound: COc1cc(/C=C\C(=O)NCCc2ccc(O)cc2)ccc1O [cis-feruloyltyramine]
- HNF4α gene expression (quantitative PCR) (HNF4α mRNA): inactive

Compound: CCN(CCCCc1ccccc1)CCc1ccccc1 [compound 1]
- Insulin activation in insulin promoter-reporter screen (HNF4α [6]): insulin activator
- HNF4α agonistic activity in OTC promoter assay (HNF4α [7]): HNF4α agonistic activity

Compound: O=C(/C=C/c1ccc(O)cc1)NCCc1ccc(O)cc1 [p-coumaroyltyramine]
- HNF4α modulator activity in screening (HNF4α [2]): able to act as HNF4α modulators
- pH Stability (pH Stability Assessment): Acid Stable
- HNF4α gene expression (quantitative PCR) (HNF4α mRNA): upregulated

Compound: O=C(/C=C/c1ccc(O)cc1)NCC(O)c1ccc(O)cc1 (stereo not shown) [pcoumaroyloctopamine]
- HNF4α gene expression (quantitative PCR) (HNF4α mRNA): inactive
